{"source": "paper PMC9026428", "about": "“New Peptide Based Fluconazole Conjugates with Expanded Molecular Targets” (Pharmaceutics, 2022)", "key": {"[1]": {"test_system": "C. albicans SC5314", "conditions": "C. albicans SC5314, 1 × MFC, time-kill over 24 h, RPMI 1640, 37 °C", "experimental": "Antifungal time-kill studies were carried out by a method previously described and evaluated by Klepser et al. [40]. A starting inoculum was prepared by inoculating a tube of sterile water with growth from 24 h YPD agar plates (C. albicans SC5314), and OD660 was adjusted to about 0.1 (around 10^6 cells per 1 mL). […] A negative control (growth medium without drug or organism) was also included at each time of testing. Tubes were incubated at 37 °C on an orbital shaker and vortexed before removing a sample for the determination of colony counts. After the appropriate time of incubation (0.5, 2, 4, 6, and 24 h), 1 mL of each suspension was centrifuged (2 min, 9170× g), and the pellet was re-suspended in 1 mL of PBS pH 7.4. Ten-fold serial dilutions with PBS were prepared, and 100 μL of each was inoculated on YPD agar plates in duplicate. Plates were incubated for 24 h at 37 °C. Colony forming units in the range of 30–300 were counted (on the plates containing from 30 to 300 colonies) and the number of yeast cells in 1 mL (CFU/mL) was calculated [21]."}, "[2]": {"test_system": "C. albicans SC5314", "assay": "Membrane permeabilization assay by propidium iodide uptake (flow cytometry, fluorescence microscopy)", "type": "cell-based, Candida albicans", "description": "Suspensions of C. albicans SC5314 were prepared by taking one loop of pure culture growth from 24 h YPD agar plates into RPMI 1640 medium and adjusting optical density to 0.1 at 660 nm wavelength. […] The cell suspensions were then treated for 0.5, 2, 4, 6, and 24 h at 37 °C with continuous agitation (180 rpm). The cells were then centrifuged and resuspended in 200 µL of PBS buffer (pH 7.4). Subsequently, cells were treated with propidium iodide (1 mg/mL, final concentration) and incubated for 30 min at room temperature in the dark. Cellular fluorescence was visualized using lens 20×, using Olympus Fluorescence Microscope BX60 (Olympus, Tokyo, Japan). The images were also post-processed utilizing cell Sens program. The fluorescence intensity emitted by DNA-bound propidium iodide was measured using a flow cytometer (Merck Millipore guava easyCyte 8, Darmstadt, Germany). Data were obtained from at least two independent experiments."}}, "data": [{"smiles": "CC[C@H](C)[C@H](NC(=O)[C@H](CCCCN)NC(=O)[C@H](CCCCN)NC(=O)[C@H](C)NC(=O)[C@H](CC(C)C)NC(=O)[C@H](C)NC(=O)[C@H](C)NC(=O)[C@H](CC(C)C)NC(=O)[C@H](C)NC(=O)[C@H](CCCCN)NC(=O)[C@H](CC(C)C)NC(=O)[C@H](CC(N)=O)NC(=O)[C@@H](NC(=O)[C@H](CCCCN)NC(=O)CNC(=O)[C@H](CC(C)C)NC(=O)[C@H](CC(C)C)NC(=O)[C@H](Cc1ccc(O)cc1)NC(=O)CNC(=O)[C@H](C)NC(=O)CCCC(=O)OC(Cn1cncn1)(Cn1cncn1)c1ccc(F)cc1F)[C@@H](C)CC)C(=O)N[C@@H](CC(C)C)C(N)=O", "note": "[FLCpOH-TP10-NH2]", "values": [{"measurement": "reduction in yeast cell count", "setting": "[1]", "value": 1, "unit": "log10"}, {"measurement": "cell membrane disruption (PI uptake), in words", "setting": "[2]", "value": "significant cell membrane damage"}]}]}
